# From patent US11104631B1, “Isopentenyl chalcone compound and preparation method thereof” (SOUTH CHINA BOTANICAL GARDEN, CHINESE ACADEMY OF SCIENCES, priority 2018, dated 2021)
# Key:
# [1] = DPPH radical scavenging assay; assay type: biochemical; conditions: 0.2 mM DPPH in ethanol, dark, room temperature, 30 minutes, absorbance at 517 nm; read-out: IC50 value against DPPH radicals
# Experimental: DPPH is a stable free radical. When a free radical scavenger is present, light absorption of DPPH will be reduced when the single electron is scavenged, which allows to evaluate free radical scavenging ability of the substance and accordingly determine antioxidant ability thereof. The DPPH radical scavenging ability of the compound 2,2′,4,4′-tetrahydroxy-3′-(2″,3″-dihydroxy-3″-methylbutyl)chalcone was measured through the DPPH radical scavenging assay, so as to evaluate the antioxidant ability of the compound. The assay comprised the following steps: 1,1-Diphenyl-2-picrylhydrazyl (DPPH) was dissolved in absolute ethanol to obtain a solution with a concentration of 0.2 mM. The compound 2,2′,4,4′-tetrahydroxy-3′-(2″,3″-dihydroxy-3″-methylbutyl)chalcone was dissolved in absolute ethanol. 80 μL of the ethanol solution of 2,2′,4,4′-tetrahydroxy-3′-(2″,3″-dihydroxy-3″-methylbutyl)chalcone and 160 μL of the 0.2 mM DPPH ethanol solution were mixed and the mixture was placed in dark at room temperature for 30 minutes. Then, light absorbance at 517 nm was measured using a microplate reader (SpectraMax 190, Molecular Devices, USA), and Vc was employed as a positive control.
# Solubility in methanol = assay type: physicochemical
Compound,IC50 [1],solubility in methanol (Solubility in methanol)
"O=C1O[C@H]([C@@H](O)CO)C(O)=C1O [Vc, vitamin C, reference compound]",100 µM,
"CC(C)(O)C(O)Cc1c(O)ccc(C(=O)/C=C/c2ccc(O)cc2O)c1O (stereo not drawn) [compound 1, 2,2′,4,4′-tetrahydroxy-3′-(2″,3″-dihydroxy-3″-methylbutyl)chalcone]",27.6 µM,easily soluble in methanol
